The values that follow come from US9764037B2, “Conjugate compounds” (Victoria Link Limited, priority 2012, dated 2017).

A short description of data set [1]: HPLC-ESI-MSMS quantification of α-GalCer in formulated test samples. The settings on record: level of α-GalCer in freshly reconstituted formulated samples. It is filed as physicochemical. How it is done:
Compounds of the invention are formulated analogously to reported methods for α-GalCer. Briefly, solubilisation of α-GalCer is based on excipient proportions described by Giaccone et al. (Giaccone, Punt et al. 2002). Thus, 100 μL of a 10 mg/mL solution of α-GalCer or a compound of the invention in 9:1 THF/MeOH is added to 1.78 mL of an aqueous solution of Tween 20 (15.9 mg), sucrose (177 mg) and L-histidine (23.8 mg). This homogeneous mixture is freeze dried and the resulting foam is stored under Ar at −18° C. This material is reconstituted with 1.0 mL of PBS or water prior to serial dilutions in PBS to achieve final injectable solutions of α-GalCer or compounds of the invention.
Quantification of the amount of α-GalCer in various test samples of compounds of the invention is made by HPLC-ESI-MSMS analysis using a Waters 2795 HPLC and a Waters Q-TOF Premier™ Tandem Mass Spectrometer. The chromatography used a Phenomenex Kinetex C18 […] 3.0×50 mm column eluting with isocratic methanol containing 10 mM ammonium formate+0.5% formic acid at a flow rate of 0.2 mL/min. α-GalCer is monitored by selective […] monitoring of 898.7 to 696.7 Da. The estimate of amount of α-GalCer is made by comparison of ion count integrals to a standard curve run on the same day or by comparison to test samples spiked with a known amount of α-GalCer. The level of α-GalCer is determined on freshly reconstituted formulated samples unless otherwise stated

The next data set concerns splenic dendritic cells. The experiment in a line: Impact of prior vaccination on response to free α-GalCer two weeks later, CD86 on splenic dendritic cells (FIGS. 6, 7). The class given is in vivo, mice. As to conditions: 200 ng α-GalCer intravenously two weeks after vaccination, FIGS. 6 and 7. How it is done:
Flow cytometry is used to assess CD86 upregulation on splenic dendritic cells after intravenous injection of 200 ng α-GalCer, which is used as a readout of NKT cell activity. Mean fluorescence index (MFI)±SEM are presented. […] Each dot represents a different animal; mean per treatment group (n=3)±SEM are presented. ***p<0.001, **p<0.01, * p<0.05.

For data set [2] the following is noted: Giaccone, Punt et al. 2002; cited from earlier work.
The conditions of data set [3]: Ebensen, Link et al. 2007; cited from earlier work.
The next data set concerns T-cell. As to conditions: Parekh, Wilson et al. 2005; cited from earlier work.
The subject of data set [4] is leukocyte infiltration into the lungs. The experiment in a line: Allergic airway inflammation in OVA-sensitized animals (FIG. 13). The class given is in vivo, mice. The settings on record: three days after challenge. As to the method: Control animals receive intranasal PBS instead of challenge, and positive control groups receive challenge but no treatment (“OVA”). The prodrug vaccines and admixed α-GalCer and peptide are administered seven days before challenge […], while the in vitro activated OVA257-specific CTL are administered one day before challenge (day 23). The total numbers of cells in BAL fluid (left), and numbers of eosinophils (right), are evaluated three days after challenge by flow cytometry.

Another data set relates to CD11c+ dendritic cells. The experiment in a line: CD86 expression on splenic dendritic cells after intravenous injection (FIG. 1). As to conditions: 0.571 nmol intravenously, spleens 20 h later. It is filed as in vivo, C57BL/6 mice. How it is done: Groups of C57BL/6 mice (n=3) are injected intravenously with 0.571 nmol of the indicated compounds and then the spleens removed 20 h later for the analysis of CD86 expression on CD11c^+ dendritic cells by antibody labelling and flow cytometry. Mean fluorescence index (MFI)±SEM are presented.
Antibody staining and flow cytometry is used to examine the expression of maturation markers on dendritic cells in the spleen following injection of compounds of the invention. Splenocyte preparations are prepared by gentle teasing of splenic tissue through gauze in Iscove's Modified Dulbecco's Medium with 2 mM glutamine, 1% penicillin-streptomycin, 5×10^-5 M 2-mercapto-ethanol and 5% fetal bovine serum (all Invitrogen, Auckland, New Zealand), followed by lysis of red blood cells with RBC lysis buffer (Puregene, Gentra Systems, Minneapolis, Minn., USA). Antibody staining is performed in PBS 2% fetal bovine serum and 0.01% sodium azide. The anti-FcgRII monoclonal antibody 2.4G2 is used at […] to inhibit non-specific staining. Monoclonal antibodies (all BD Biosciences Pharmingen, San Jose, Calif., USA) are used to examine expression of the maturation markers CD40, CD80 and CD86 on CD11c+ dendritic cells.

Data set [5] concerns SIINFEKL-specific T cells. Nature of the data set: Analysis of peptide-specific T cell proliferation in vivo (FIGS. 2, 5, 8, 9). Also on record: species or system mice. As to the method: (SEQ ID NO:262) peptide in each case. To increase sensitivity of the assay, all mice are initially donated a cohort of 10,000 […] (SEQ ID NO:262)-specific T cells from a transgenic mouse encoding a T cell receptor for this antigen (OT-1 mice) by intravenous injection of the cells one day before the vaccines are administered. […] It is therefore possible to enumerate […] (SEQ ID NO:262)-specific T cells in blood by flow cytometry using antibodies for CD45.1 together with antibodies for the transgenic T cell receptor (Vα2). […] Control animals are injected with the diluent phosphate-buffered saline (PBS). […] Each dot represents a different animal; mean per treatment group±SEM are presented.
Accumulation of antigen-specific T cells in the blood in response to vaccination is measured 7 days later, as described for FIG. 2.
Pooled lymph node cell suspensions are prepared from animals of a cross between OT-I mice, which express a transgenic T cell receptor (TCR) specific for the ovalbumin epitope […] in the context of H-2K^b molecules, and B6.SJL-Ptprc^a Pepc^b/BoyJ mice, which are congenic with C57BL/6 mice for the CD45.1^+ marker. The samples are enriched for CD8^+ cells using antibody coated magnetic beads (Miltenyi), and then transferred into recipient mice (1×10^4 per mouse). Groups of recipient animals (n=5) are immunized with compounds of the invention one day later. Doses are chosen to provide equivalent molar values of […] peptide. Control animals receive phosphate-buffered saline. After seven days, blood samples are collected from the lateral tail vein and stained directly ex vivo with antibodies for TCR Vα2, CD45.1 and CD8 to detect the […]-specific CD8^+ T cells by flow cytometry.

`CCCCCCCCCCCCCCCCCCCCCCCCCC(=O)OC(CCCCCCCCCCCCCC)C(O)C(COC1OC(CO)C(O)C(O)C1O)NC(=O)OCc1ccc(NC(=O)C(CCCNC(N)=O)NC(=O)C(NC(=O)OCc2ccccc2)C(C)C)cc1` [CN165, (2S,3S,4R)-1-O-α-D-Galactopyranosyl-4-O-hexacosanoyl-2-(N-Cbz-Val-Cit-4-aminobenzyloxycarbonylamino) octadecane-1,3,4-triol] gave a α-GalCer/injection in data set [1] of 0.028 ng. Also, the “DC activation (CD86 upregulation) on administration of free α-GalCer after earlier vaccination” value in the data set on splenic dendritic cells was “some DC activation”.
The corresponding values for `CCCCCCCCCCCCCCCCCCCCCCCCCC(=O)OC(CCCCCCCCCCCCCC)C(O)C(COC1OC(CO)C(O)C(O)C1O)NC(=O)OCc1ccc(NC(=O)C(CCCCN)NC(=O)C(Cc2ccccc2)NC(=O)OCc2ccccc2)cc1` [CN166, (2S,3S,4R)-1-O-α-D-Galactopyranosyl-4-O-hexacosanoyl-2-(N-Cbz-Phe-Lys-4-aminobenzyloxycarbonylamino) octadecane-1,3,4-triol] are 0.136 ng and “some DC activation”.
On to `CCCCCCCCCCCCCCCCCCCCCCCCCC(=O)N[C@@H](CO[C@H]1O[C@H](CO)[C@H](O)[C@H](O)[C@H]1O)[C@H](O)[C@H](O)CCCCCCCCCCCCCC` [α-GalCer, α-Galactosylceramide], for which the “efficacy in human clinical trials” value in data set [2] was “lack of efficacy”. In addition, in data set [3], the solubility entry is recorded as “poor solubility”. In the data set on T-cell, the T-cell anergy entry is recorded as “promotion of T-cell anergy”. Besides, the “DC activation (CD86 upregulation) on administration of free α-GalCer after earlier vaccination” value in the data set with splenic dendritic cells is recorded as “no measurable activation of DCs”.
Consider “(2S,3S,4R)-1-O-α-D-Galactopyranosyl-4-hexacosanoyl-2-((4-(2-(FFRKSIINFEKL)-2-oxoethoxy)imino)pentanoyloxy)methoxycarbonylamino) octadecane-1,3,4-triol [CN152]”, for which, in data set [4] (vaccination of sensitized mice one week before challenge), the “leukocyte infiltration into the lungs (total number of cells in BAL fluid)” value was “significantly suppress leukocyte infiltration into the lungs”. Besides, the “infiltration of eosinophils (BAL fluid)” value in data set [4] (vaccination seven days before challenge) is “superior to both CN178 and admixed groups”. In addition, the “activation of DCs (expression of activation marker CD86 on splenic DCs)” value with CD11c+ dendritic cells is “potently activates DCs”. Besides, the α-GalCer/injection in data set [1] came to 0.05 ng. In addition, in data set [5] (FIG. 8), the “T cell expansion on repeated administration” value is listed as “induces further T cell expansion”. Also, in data set [5] (boost day 14 or 35, read day 21 or 42, blood, FIG. 9), the “T cell response on boosting after priming with SIINFEKL with α-GalCer (unconjugated)” value is listed as “induces measurable T cell responses”. Besides, the “dependence of the T cell response on langerin+ CD8α+ DCs” value in data set [5] (depletion by diphtheria toxin, FIG. 2) is reported as “dependent on langerin^+ CD8α^+ DCs”. For the same molecule, in data set [5] (intravenous vaccination, compared with admixed α-GalCer and peptide, lang-EGFPDTR mice, FIG. 2), the “population of SIINFEKL-specific T cells (Vα2+ CD45.1+) in blood” value is recorded as “larger population of peptide-specific T cells”. The “DC activation (CD86 upregulation) on administration of free α-GalCer after earlier vaccination” value with splenic dendritic cells is on record as “some DC activation”.
